Results taken from US20080021015A1, “Use as medicine of a compound restoring active principles in vivo” (DOSPHARMA, priority 2000, published 2008).
Counter-ions that a name gives are not always drawn.

Assays:
[1] = rat, in vivo, po, 50 mg/kg
[2] = tested on: rats treated with streptozotocin; assay: Antidiabetic activity in rats made diabetic with streptozotocin; type: in vivo, rat; settings: streptozotocin (50 mg/kg, IP) rats; for hyperglycaemia after treatment: after administration of 30 mg/kg; for hyperglycaemia before treatment: starting value, 30 mg/kg group
Procedure: (§1) The antidiabetic activity was studied, from the pharmacological point of view, on two models of rats made diabetic.
The first model consisted in treating the rats with streptozotocin (50 mg/kg, IP), this being a compound which induces an increase in glycaemia, which increases from 5.5 mM to 12-14 mM in 21 days.

[3] = tested on: primary hepatocytes; assay: In vitro toxicity assay on primary hepatocytes
Procedure: A method for culturing primary hepatocytes over a period of 96 hours is used (see Biochemical Pharmacology, vol. 50, 1995, pp. 775-780). The hepatocytes are isolated in situ by collagen profusion. They are then placed in a Williams medium supplemented with foetal calf serum, with cortisol and with glutamine, in a proportion of 1 million cells per well. Increasing and toxic concentrations of A and C, and of A′ ? […] C′ are then added to each well. Samples are taken up after 6 h, 12 h, 24 h, 48 h and 96 h and the viability of the cells is determined with a methylene blue test, by albumin expression, by hepatocyte apoptosis and by measuring cytochrome P450 activity.

[4] = tested on: rats given fructose at 10% in the drinking water; settings: fructose 10% in drinking water, equivalent dose of metformin base
Procedure: as §1
The second study is carried out with the administration of fructose at 10% in the drinking water of the rats.

[5] = tested on: hamster cheek pouch

Row | Compound | concentration peak [1] [ng/mL] | time of concentration peak [1] [min] | hyperglycaemia after treatment [2] [mM] | hyperglycaemia before treatment [2] [mM] | toxic dose [3] | antidiabetic activity compared with metformin alone [4] | effects on the microcirculation [5]
1 | CN(C)C(=N)N=C(N)N [metformin hydrochloride] | 3900 | ≤ 90 |  |  |  |  | 
2 | CN(C)C(=N)NC(=N)N [metformin, N,N-dimethylimidodicarbonimidic diamide] |  |  | 9.85 | 12.11 | 10^−2 M |  | 
3 | arginine hemisuccinimide-metformin hemisuccinate |  |  | 7.56 | 12.66 |  | significantly more active than the metformin alone | reproduces at least the effects of the two active principles on the microcirculation
